The text below walks through data of ChEMBL document CHEMBL2169801, “Development of o-chlorophenyl substituted pyrimidines as exceptionally potent aurora kinase inhibitors” (J Med Chem, 2012).

Converted amounts (≈) assume the structure as drawn.

The nature of one series: physchem. Particulars: buffer, pH 7.4.
What is called solubility is how much of the substance goes into solution per volume. The low end stands for a poorly soluble substance, the high end for a readily soluble substance. `Fc1cnc(Nc2ccc(-c3nnn[nH]3)cc2)nc1Nc1ccccc1Cl`: the concentration in solution (solubility) came to 49 µg/mL (≈ 128 µM). In turn, `Clc1ccccc1Nc1ccnc(Nc2ccc(-c3nnn[nH]3)cc2)n1` returned a solubility of 49 µg/mL (≈ 134 µM). In turn, `Oc1cc(Nc2ncc(F)c(Nc3ccccc3Cl)n2)ccc1-c1nnn[nH]1` had a solubility of 49 µg/mL (≈ 123 µM).

The compound `Clc1ccccc1Nc1nc(Nc2ccc(-c3nnn[nH]3)cc2)ncc1Cl` returned a solubility of 49 µg/mL (≈ 123 µM).

Assay in a further series: not given
The settings on record: buffer.
On to `O=C(O)c1ccc(Nc2nccc(Nc3ccccc3F)n2)cc1`, for which the solubility entry is “Insoluble”. The same measure, in the same setting: next, `O=C(O)c1ccc(Nc2nccc(Nc3ccccc3Cl)n2)cc1O`: “Insoluble”; `O=C(O)c1ccc(Nc2nccc(Nc3ccccc3Cl)n2)cc1`: “Insoluble”; `O=C(O)c1ccc(Nc2ncc(F)c(Nc3ccccc3C(=O)O)n2)cc1`: “Insoluble”.
